From US4139605A, “Water-soluble, non-ionizing, radiopaque compounds and contrast compositions containing the same” (Bracco Industria Chimica S.p.A., priority 1977, dated 1979)
≈ marks a conversion by molar mass, not a printed value. Entries after “also recorded” stand apart in the source; their conditions may differ. Read-outs that look alike come from different tables or passages of the source.

Assays:
[1] = Osmotic pressure of aqueous solutions at 37° C.; type: physicochemical
Method: (§1) Toxicity is listed as LD50 in mg I/kg body weight 12 days after intravenous injection and 48 hours after intracerebral injection in mice. The osmotic pressure was determined at 37° C. in solutions containing 400 mg I per ml, unless specifically noted otherwise, and is indicated in atmospheres.

[2] = Solubility in water, methanol and ethanol; type: physicochemical
mouse [3] = assay: Toxicity, LD50 48 hours after intracerebral injection in mice; type: in vivo; conditions: 48 hours after injection
Method: as §1

[4] = Stability and storage life of solutions; type: physicochemical; conditions: aqueous solutions
[5] = General toxicity and side effects; type: in vivo; conditions: in words
[6] = Viscosity of aqueous solutions at body temperature; type: physicochemical; conditions: aqueous solutions containing
rabbits = assay: Intracisternal toxicity, LD50 (48 hours) in rabbits; type: in vivo
Method: The preferred compounds of the invention are those identified in the table above by letters B and C. […] LD50 (48 hours) in rabbits is about 233 mg I per kg.

mouse [7] = assay: Toxicity, LD50 12 days after intravenous injection in mice; type: in vivo; conditions: 12 days after injection
Method: Properties of compounds A, B, C, D of this invention, of the chemically nearest known compounds E, F, and of chemically less closely related known radiopaque compounds G, H, I used heretofore for visualizing blood vessels and cavities of the spinal cord and the brain are listed in the Table hereinbelow. Toxicity is listed as LD50 in mg I/kg body weight 12 days after intravenous injection and 48 hours after intracerebral injection in mice. The osmotic pressure was determined at 37° C. in solutions containing 400 mg I per ml, unless specifically noted otherwise, and is indicated in atmospheres.

[8] = water, 20° C., read-out: solubility in water

| solubility in water ([2]; water, in words) | Compound | Osmotic pressure ([1]; 400 mg I per ml) [atm.] | Toxicity, LD50, intracerebral (mouse [3]) [mg I/kg] | Toxicity, LD50, intravenous (mouse [7]) [mg I/kg] | also measured |
| --- | --- | --- | --- | --- | --- |
|  | CC(O)C(=O)Nc1c(I)c(C(=O)NCCOCCOCCNC(=O)c2c(I)c(NC(=O)C(C)O)c(I)c(C(=O)NC(CO)CO)c2I)c(I)c(C(=O)NC(CO)CO)c1I (stereo not shown) [Compound A, 1,8-bis-[5,-(1,3-dihydroxyisopropyl)aminocarbonyl-3-(2-hydroxypropionyl)amino-2,4,6-triiodo-benzoylamino]-3,6,dioxaoctane] | 8.15 | 1100 |  | solubility in ethanol ([2]; boiling ethanol): about 2.5%; solubility in ethanol ([2]; ethanol, in words): sparingly soluble in ethanol; solubility in ethanol ([2]; ethanol, room temperature): about 1%; solubility in methanol ([2]; methanol, in words): soluble in methanol; solubility [2, 8]: ~500 mg/mL (≈ 329 mM); solubility ([2]; water, boiling temperature, read-out: solubility in water): ~1000 mg/mL (≈ 658 mM) |
|  | CC(O)C(=O)Nc1c(I)c(C(=O)NCCCOCCOCCOCCOCCCNC(=O)c2c(I)c(NC(=O)C(C)O)c(I)c(C(=O)NC(CO)CO)c2I)c(I)c(C(=O)NC(CO)CO)c1I (stereo not shown) [Compound B, 1,16-bis-[5-(1,3-dihydroxyisopropyl)aminocarbonyl-3-(2-hydroxypropionyl)amino-2,4,6-triiodobenzoylamino]-4,7,10,13-tetraoxahexadecane] |  | 990 |  | stability of solutions [4]: stable; storage life of solutions [4]: long storage life; solubility ([2]; methanol, organic solvent or mixture, boiling methanol, read-out: solubility in methanol): 500 mg/mL (≈ 306 mM); solubility [2, 8]: ~1000 mg/mL (≈ 611 mM); side effects [5]: lack of side effects; viscosity [6]: relatively low viscosity |
|  | CC(O)C(=O)Nc1c(I)c(C(=O)NC(CO)CO)c(I)c(C(=O)NC(CO)CO)c1I (stereo not drawn) [E, 5-α-hydroxypropionylamino-2,4,6-triiodo-isophthalic acid-bis-(1,3-dihydroxyisopropylamide)] | 22.2 | 1500 | 21800 |  |
| dissolves readily in water | CC(O)C(=O)Nc1c(I)c(C(=O)NCCCOCCOCCOCCOCCCNC(=O)c2c(I)c(NC(=O)C(C)O)c(I)c(C(=O)NC(C)(CO)CO)c2I)c(I)c(C(=O)NC(C)(CO)CO)c1I (stereo not shown) [Example 9, 1,16-bis-[5-(1,3-dihydroxy-2-methyl-2propyl)aminocarbonyl-3-(2-hydroxypropionyl)amino-2,4,6-triiodo-benzoylamino]-4,7,10,13tetraoxahexadecane] |  |  |  |  |
| dissolved readily in water | CC(O)C(=O)Nc1c(I)c(C(=O)NCCOCCOCCOCCOCCNC(=O)c2c(I)c(NC(=O)C(C)O)c(I)c(C(=O)NC(C)(CO)CO)c2I)c(I)c(C(=O)NC(C)(CO)CO)c1I (stereo not shown) [Example 10, 1,14-bis-[5-(1,3-dihydroxy-2methyl-2-propyl)aminocarbonyl-3-(2-hydroxypropionyl)amino-2,4,6-triiodo-benzoylamino]-3,6,9,12-tetraoxatetradecane] |  |  |  |  |
|  | CC(O)C(=O)Nc1c(I)c(C(=O)NCCOCCNC(=O)c2c(I)c(NC(=O)C(C)O)c(I)c(C(=O)NC(C)(CO)CO)c2I)c(I)c(C(=O)NC(C)(CO)CO)c1I (stereo not shown) [Example 11, 1,5-Bis-[5-(1,3-dihydroxy-2-methyl-2-propyl)aminocarbonyl-3-(2-hydroxypropionyl)amino-2,4,6-triiodo-benzoylamino]-3-oxapentane] |  |  |  | solubility ([2]; water, per 100 ml, 20° C., read-out: solubility in water): > 1000 mg/mL |
| readily dissolved in water | O=C(CO)Nc1c(I)c(C(=O)NCCOCCOCCOCCOCCNC(=O)c2c(I)c(NC(=O)CO)c(I)c(C(=O)NC(CO)CO)c2I)c(I)c(C(=O)NC(CO)CO)c1I [Example 12, 1,14-bis-[5-(1,3-dihydroxyisopropyl)aminocarbonyl-3-hydroxy-acetylamino-2,4,6-triiodo-benzoylamino]-3,6,9,12-tetraoxa-tetradecane] |  |  |  |  |
|  | CC(=O)Nc1c(I)c(C(=O)N[C@H]2C(O)O[C@H](CO)[C@@H](O)[C@@H]2O)c(I)c(N(C)C(C)=O)c1I (stereo partly shown) [F, 3-acetylamino-5-N-methyl-acetylamino-2,4,6-triiodo-benzoyl-glucosamine] | 14.7 | 1400 | 10200 |  |
|  | CNC(=O)c1c(I)c(NC(=O)CCCCC(=O)Nc2c(I)c(C(=O)O)c(I)c(C(=O)NC)c2I)c(I)c(C(=O)O)c1I [G, 5,5'-adipoyldiimino-bis-(2,4,6-triiodo-N-methyl-isophthalamic acid)] |  | 600 | 5500 | Osmotic pressure ([1]; 280 mg I/ml): 27.5 atm. |
|  | CNC(=O)c1c(I)c(NC(=O)CN(CC(=O)Nc2c(I)c(C(=O)O)c(I)c(C(=O)NC)c2I)CC(=O)Nc2c(I)c(C(=O)O)c(I)c(C(=O)NC)c2I)c(I)c(C(=O)O)c1I [H, 5,5',5"-(nitrilotriacetyl-triimino-tris-)-2,4,6-triiodo-N'-methyl-isophthalamic acid] | 36.2 |  | 5800 |  |
|  | CC(=O)Nc1c(I)c(NC(C)=O)c(I)c(C(=O)O)c1I [I, 3,5-bis-acetylamino-2,4,6-triiodobenzoic acid] |  |  | 7600 |  |

| Compound | solubility in water ([2]; water, in words) | Osmotic pressure ([1]; 400 mg I per ml) [atm.] | Toxicity, LD50, intracerebral (mouse [3]) [mg I/kg] | Toxicity, LD50, intravenous (mouse [7]) [mg I/kg] | also measured |
| --- | --- | --- | --- | --- | --- |
| CC(O)C(=O)Nc1c(I)c(C(=O)NC(CO)CO)c(I)c(C(=O)N(C)CCOCCOCCOCCN(C)C(=O)c2c(I)c(NC(=O)C(C)O)c(I)c(C(=O)NC(CO)CO)c2I)c1I (stereo not shown) [Compound C, 1,11-bis [N-methyl-N-{5-(1,3-dihydroxyisopropyl)aminocarbonyl-3-(2-hydroxypropionyl)amino-2,4,6-triiodobenzoyl}-amino]-3,6,9-trioxaundecane] | dissolves readily in water | 10.59 | 1130 | 14000 | intracisternal toxicity (rabbits; in words): particularly low; LD50 (48 hours), intracisternal (rabbits; rabbits, 48 hours): about 233 mg I per kg; stability of solutions [4]: stable; storage life of solutions [4]: long storage life; solubility in ethanol ([2]; ethanol, in words): only moderately well in ethanol; side effects [5]: lack of side effects; viscosity [6]: relatively low viscosity |
| CC(O)C(=O)Nc1c(I)c(C(=O)NC(CO)CO)c(I)c(C(=O)N(C)CCCOCCOCCOCCOCCCN(C)C(=O)c2c(I)c(NC(=O)C(C)O)c(I)c(C(=O)NC(CO)CO)c2I)c1I (stereo not shown) [Compound D, 1,16-bis-[N-methyl-N-{5-(1,3-dihydroxyisopropyl)aminocarbonyl-3-(2-hydroxypropionyl)amino-2,4,6-triiodobenzoyl}amino]-4,7,10,13-tetraoxahexadecane] | dissolves very readily in water; also recorded: readily dissolved in water | 9.42 | 1420 |  | solubility in methanol ([2]; methanol, in words): soluble in methanol |
